Results on three compounds are retold here after publication PMC12598805, “Crystal Structure–Activity Relationship of Some MeO Phenylacrylonitriles: Dual Antimicrobial–Cytotoxic Effects and in Silico Perspectives” (ChemistryOpen, 2025).

A word on the zone of inhibition: it is the extent of the growth-free halo in a diffusion test. What is called MIC is the lowest concentration found to suppress growth. Usually MBC stands for the smallest concentration meeting the test's criterion for killing.

Holding throughout (assay type): cell-based
Test [1] relates to Escherichia coli (ATCC 25922). In words: Agar diffusion, zone of inhibition. Particulars: compounds at 50 mg mL^−1; for zone of inhibition: E.coli; for zone of inhibition at 50 mg/mL: Escherichia coli, ATCC25922, E.coli. The text has this: (§1) The antibacterial and antifungal activities were reported utilizing the method described by the Clinical & Laboratory Standards Institute.^[ [31], [32] ^] Agar diffusion method was used to determine the antimicrobial activity of the synthesized substances. The media used were mueller hinton agar (MHA) for bacteria and sabouraud‐dextrose agar (SDA) for fungi (Merck), as recommended by the manufacturer.
The synthesized compounds were initially investigated for their antimicrobial activity to elucidate the potential therapeutic utility against various pathogenic microbes using the agar plate diffusion method. The compounds were tested at a concentration of 50 mg mL^−1, and the antibiotics (ampicillin, kanamycin, and amphotericin B) were used at 5 mg mL^−1. […] K.pneumoniae and B.cereus were resistant to ampicillin, while they were susceptible to kanamycin with inhibition values of 30 and 26 mm, respectively. No antimicrobial activity of the compounds was observed against E.faecalis, S.typhimurium, K.pneumoniae, and for the fungus compared to Amphotericin B (20 mm). […]
(§2) Escherichia coli (ATCC 25922) […]
(§3) ATCC: American Type Culture Collection; NRRL: Northern Regional Research Laboratory The compounds 2(a-c) obtained could only be completely solubilised with dimethyl sulphoxide (DMSO) and the highest possible stock solutions of 50 mg.mL-1 were prepared. To these wells 50 μl of the previously prepared substances were transferred using sterile micropipette tips. For comparison, Ampicillin and kanamycin antibiotics for bacteria and Amphotericin B antibiotics for fungus were used as positive controls and DMSO was used as negative control. The prepared petri plates were kept at +4°C for about 1 hour and then the bacterial cultures were incubated at 37°C for 18-24 hours and mould cultures at 27-30°C for 48-72 hours. The zones formed were measured millimetrically with callipers. The experiments were performed with three repetitions. […]
(In general: In agar diffusion tests the substance spreads into inoculated agar from a disc or well.)

In test [2] the test system is Bacillus cereus (ATCC-10876). As to the kind of experiment: Agar diffusion, zone of inhibition. Particulars: B.cereus, compounds at 50 mg mL^−1; for zone of inhibition at 50 mg/mL: Bacillus cereus, ATCC10876.
Excerpt: as §1
The synthesized compounds were initially investigated for their antimicrobial activity to elucidate the potential therapeutic utility against various pathogenic microbes using the agar plate diffusion method. The compounds were tested at a concentration of 50 mg mL^−1, and the antibiotics (ampicillin, kanamycin, and amphotericin B) were used at 5 mg mL^−1. […] K.pneumoniae and B.cereus were resistant to ampicillin, while they were susceptible to kanamycin with inhibition values of 30 and 26 mm, respectively. No antimicrobial activity of the compounds was observed against E.faecalis, S.typhimurium, K.pneumoniae, and for the fungus compared to Amphotericin B (20 mm).
(§4) Bacillus cereus (ATCC-10876) […]
as §3

Test [3] deals with Pseudomonas aeruginosa (ATCC 27853). In words: Broth microdilution MIC. As to conditions: ATCC27853, P.aeruginosa. As for the experimental part:
(§5) Pseudomonas aeruginosa (ATCC 27853) […]
(§6) ATCC: American Type Culture Collection; NRRL: Northern Regional Research Laboratory The compounds 2(a-c) obtained could only be completely solubilised with dimethyl sulphoxide (DMSO) and the highest possible stock solutions of 50 mg.mL-1 were prepared. […]
(§7) 3.1. Determination of Minimum Inhibition Concentration (MIC)
(§8) The minimum inhibition concentration (MIC) values of the compounds 2(a-c) against the test bacteria used in the study were determined according to the broth microdilution method.[1-2] MHB or SDB was used as test medium and bacterial and yeast suspensions were prepared at 0.5 Mc Farland concentration for each test bacteria. Double layer serial dilutions were prepared in "U" type 96-well microtiter plates. Medium+bacteria suspensions containing only medium in the first row, medium+bacteria in the second row and the final concentrations of the synthesised substances in the other rows between 25 mg.mL-1 and […] were added to the wells with a final volume of 200
(§9) μL. Ampicillin, Kanamycin and Amphotericin B standard antibiotics were used as positive controls.
(§10) Bacteria were incubated at 37±0.1 °C and C. albicans at 30±0.1 °C for 24-48 hours and the lowest concentration without growth was determined as MIC. Tests were performed in two parallel runs and mean values were given as a result. […]

The test system is the same in test [4]. In words: MBC by sub-culture from wells without growth. Particulars: ATCC27853, P.aeruginosa. As for the experimental part:
as §5, §6, §7, §8, §9
(§11) Bacteria were incubated at 37±0.1 °C and C. albicans at 30±0.1 °C for 24-48 hours and the lowest concentration without growth was determined as MIC. Tests were performed in two parallel runs and mean values were given as a result. In order to estimate “the minimum bactericidal/fungicidal concentrations (MBC/MFC) of the synthesised acrylonitrile derivatives “needed to indicate […] killing of the original inoculum,” 10 μl was taken from the wells with no observed growth and further sub-cultured onto their agar media (MHA and SDA for bacterial and fungal strains, respectively).[3] […]

The test system of test [5] is Bacillus cereus (ATCC-10876). In words: MBC by sub-culture from wells without growth. As to conditions: Bacillus cereus, ATCC10876; B.cereus; read-out: MBC. As for the experimental part: as §4, §6, §7, §8, §9, §11
Test [6] has as its system Escherichia coli (ATCC 25922). In words: MBC by sub-culture from wells without growth. Particulars: ATCC25922, E.coli. As for the experimental part:
as §2, §6, §7, §8, §9, §10

In brackets after ≈: the same amount, converted by molar mass.

For `COc1ccc(/C=C(\C#N)c2ccc(F)cc2)cc1` [2b], the zone of inhibition in test [1] was determined as 12 ± 1.41 mm; in test [2], 13 ± 2.83 mm. The zone of inhibition at 50 mg/mL in test [1] worked out at 12 mm; in test [2], 13 mm. For the same compound, 12.5 mg/mL (≈ 49.4 mM) was the least that counted as inhibitory in test [3] (MIC). Besides, the minimum bactericidal concentration (MBC) in test [4] and in test [5] was 12.5 mg/mL (≈ 49.4 mM) throughout.

Consider `COc1ccc(/C=C(\C#N)c2cc(C(F)(F)F)cc(C(F)(F)F)c2)cc1` [2c], for which the zone of inhibition in test [1] turned out to be 13 ± 0 mm; in test [2], 14 ± 0.71 mm. In addition, the zone of inhibition at 50 mg/mL in test [1] was 13 mm; in test [2], 14 mm. The same compound gave a minimum inhibitory concentration (MIC) in test [3] of 12.5 mg/mL (≈ 33.7 mM). Besides, the MBC in test [4] and in test [5] was 12.5 mg/mL (≈ 33.7 mM) throughout.

In the case of `COc1ccc(C=C(C#N)c2ccccc2)cc1` [2a, 3‐(4‐methoxyphenyl)‐2‐phenylacrylonitrile], the zone of inhibition in test [1] is on record as 13 ± 0.71 mm; in test [2] it was 15 ± 2.12 mm. For the same compound, the zone of inhibition at 50 mg/mL in test [1] was found to be 13 mm; in test [2], 15 mm. Moreover, the MIC in test [3] was determined as 5 mg/mL (≈ 21.3 mM). In addition, the MBC was 5 mg/mL (≈ 21.3 mM) in test [6], 5 mg/mL (≈ 21.3 mM) in test [4] and 12.5 mg/mL (≈ 53.1 mM) in test [5].
